In US6529835B1, “High throughput methods, systems and apparatus for performing cell based screening assays” (Caliper Technologies Corp., priority 1998, dated 2003):

Assays:
CHO cells = assay: Dual label cell function assay, intracellular calcium in CHO cells (Fluo-3 / Syto-17, on-chip); format: cell-based; conditions: ionomycin 0, 1 μM, 3 μM, 10 μM and 30 μM, FIGS. 11A-11F
Method: (§1) Cell Culture—Cells (CHO or THP-1) were obtained from the ATCC. THP-1 cells were cultured in RPMI 1640 media containing 10% fetal bovine serum (FBS), sodium pyruvate (1 mM), L-glutamine (2 mM), Penicillin-G/Streptomycin (100 u/ml, 100 μ/ml), beta-mercaptoethanol (50 μM), HEPES buffer, pH 7.4 (10 mM). CHO cells were cultured in Ham's F12 media containing 10% FBS, L-glutamine (2 mM), and Penicillin-G/Streptomycin (100 u/ml/100 μg/ml). The cells were maintained by splitting every 3-4 days.
(§2) Dye Loading of Cells—The cells were loaded with Fluo-3-AM dye (Molecular Probes) using a 4 μM solution of the dye in Hank's Balanced Salt Solution (HBSS) containing calcium and magnesium but lacking phenol red. Added to the HBSS were 1% FBS, 2.5 mM probenecid, 30 mM HEPES, pH 7.0, and 0.05% pluronic acid. The cells were incubated in the dye containing solution at approximately, 5-9×10^6 cells/5 ml for 50 minutes in a CO2 incubator at 37° C. […]
(§3) The fluorescence of the cells was measured using two PMT's on a Nikon inverted microscope and fluorescein/texas red filter sets (Fluo-3: Ex. max=506, Em. max=526 & Syto-17: Ex. max=621, Em. max=634 nm) for two color analysis. Using the combination of Fluo-3 and Syto-17 dyes, there was no interference by fluorescence quenching of one dye's emission by the other dye. […] Syto-17 was therefore an indicator of cell density in the reading area. […]

[1] = test system: P2Y receptor on THP-1 cells; assay: Dual label cell function assay, calcium response of THP-1 cells to UTP (Fluo-3 / Syto-17, on-chip); format: cell-based
Method: as §1, §2, §3

With `C[C@H](CCC(=O)O)C[C@H](C)C[C@H](C)C(=O)/C=C(\O)[C@H](C)C[C@H](C)C/C=C/[C@@H](C)[C@@H](O)[C@@H](C)[C@@H](O)C[C@@H]1CC[C@@](C)([C@H]2CC[C@@](C)([C@@H](C)O)O2)O1` [ionomycin] the “slope of the best fit line for the scatter plots (ratio of calcium modulated fluorescence to cell number; measure of intracellular calcium concentration)” value (CHO cells) was “increases with increasing ionomycin concentration”.
In the case of `O=c1ccn([C@@H]2O[C@H](COP(=O)(O)OP(=O)(O)OP(=O)(O)O)[C@@H](O)[C@H]2O)c(=O)[nH]1` [UTP], the “time to peak of calcium response after sample introduction” value ([1]; 10 μM UTP, FIG. 15) is reported as ≤ 5 s and the “ratio of the Fluo-3 and Syto-17 fluorescence (the slope determined by linear regression)” value ([1]; 30 μM UTP versus no UTP, FIG. 13) is reported as “changes with treatment with UTP”.
